Results reported in patent US11566007B2, “Ras inhibitors” (Revolution Medicines, Inc., priority 2019, dated 2023).

Legend:
[1] = test system: NCI-H358 cells (K-Ras G12C); experiment: Potency assay: pERK in NCI-H358 cells; assay type: cell-based, human; conditions: Homo sapiens, NCI-H358; H358 KRAS G12C; read-out: pERK EC50
How it was run: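 Inhibition of cellular pERK after a 4 h treatment, detected by AlphaLISA or In-Cell Western. IC50 from a four-parameter concentration-response fit.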

NCI-H358 (K-Ras G12C) = experiment: CellTiter-Glo cell viability assay, NCI-H358; assay type: cell-based, human; conditions: Homo sapiens, NCI-H358, 120 h, NCI-H358, 5-day treatment; class symbols; read-out: Additional H358 Cell Viability assay data (K-Ras G12C, IC50)
How it was run: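 Compounds were dispensed directly onto K-Ras mutant cells and incubated until day 5, then plates were equilibrated to room temperature for about 30 minutes before CellTiter-Glo luminescence. Signals were normalized as (sample/average DMSO)*100 and fitted by four-parameter logistic fit.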

K-Ras G12C = K-Ras G12C (Homo sapiens (Human), UniProt P01116+P62937, G12C); experiment: Ras-Raf (BRAF RBD) disruption / FRET / MOA assay, KRAS G12C; assay type: biochemical; conditions: KRAS G12C; Ras-Raf disruption/FRET/MOA assay; read-out: IC50* KRAS G12C FRET data
Chain of K-Ras G12C (P01116-2 other isoform, or with tags, fused parts or gaps G12C): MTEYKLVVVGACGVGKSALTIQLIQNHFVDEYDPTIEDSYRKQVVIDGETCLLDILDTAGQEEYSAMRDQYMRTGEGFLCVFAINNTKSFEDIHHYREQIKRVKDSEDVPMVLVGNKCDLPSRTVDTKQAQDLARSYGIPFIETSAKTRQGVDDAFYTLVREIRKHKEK
Chain of K-Ras G12C (P62937 whole entry): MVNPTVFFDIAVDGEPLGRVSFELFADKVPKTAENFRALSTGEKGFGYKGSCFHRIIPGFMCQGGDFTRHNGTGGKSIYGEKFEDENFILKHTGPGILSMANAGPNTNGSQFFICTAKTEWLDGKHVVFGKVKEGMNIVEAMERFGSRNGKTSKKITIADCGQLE
How it was run: (§1)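 A 10-point, 3-fold dilution series topping at 30 μM final was incubated 3 h at 25° C with the Ras/cyclophilin A/BRAF RBD mixture.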

K-Ras G13C = K-Ras G13C (Homo sapiens (Human), UniProt P01116+P62937, G13C); experiment: Ras-Raf (BRAF RBD) disruption / FRET / MOA assay, KRAS G13C; assay type: biochemical; conditions: KRAS G13C; Ras-Raf disruption/FRET/MOA assay; read-out: IC50* KRAS G13C FRET data
Chain of K-Ras G13C (P01116-2 other isoform, or with tags, fused parts or gaps G13C): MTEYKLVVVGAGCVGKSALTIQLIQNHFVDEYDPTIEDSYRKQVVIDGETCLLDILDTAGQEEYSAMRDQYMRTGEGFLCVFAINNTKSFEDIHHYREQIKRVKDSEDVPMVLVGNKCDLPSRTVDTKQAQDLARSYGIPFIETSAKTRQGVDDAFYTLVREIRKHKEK
Chain of K-Ras G13C (P62937 whole entry): as the sequence (P62937 whole entry) above
How it was run: as §1

KRAS G12S = KRAS G12S (Homo sapiens (Human), UniProt P01116+P62937, G12S); experiment: Ras-Raf (BRAF RBD) disruption / FRET / MOA assay, KRAS G12S; assay type: biochemical; conditions: Ras-Raf disruption/FRET/MOA assay; class symbols; read-out: KRAS G12S FRET data IC50
Chain of KRAS G12S (P01116-2 other isoform, or with tags, fused parts or gaps G12S): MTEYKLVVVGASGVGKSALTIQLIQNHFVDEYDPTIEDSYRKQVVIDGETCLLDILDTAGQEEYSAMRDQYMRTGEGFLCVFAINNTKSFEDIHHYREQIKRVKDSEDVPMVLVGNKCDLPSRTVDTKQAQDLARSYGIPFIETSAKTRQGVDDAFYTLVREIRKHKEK
Chain of KRAS G12S (P62937 whole entry): as the sequence (P62937 whole entry) above
How it was run: as §1

KRAS G12D = KRAS G12D (Homo sapiens (Human), UniProt P01116+P62937, G12D); experiment: Ras-Raf (BRAF RBD) disruption / FRET / MOA assay, KRAS G12D; assay type: biochemical; conditions: Ras-Raf disruption/FRET/MOA assay; class symbols; read-out: KRAS G12D FRET data IC50
Chain of KRAS G12D (P01116-2 other isoform, or with tags, fused parts or gaps G12D): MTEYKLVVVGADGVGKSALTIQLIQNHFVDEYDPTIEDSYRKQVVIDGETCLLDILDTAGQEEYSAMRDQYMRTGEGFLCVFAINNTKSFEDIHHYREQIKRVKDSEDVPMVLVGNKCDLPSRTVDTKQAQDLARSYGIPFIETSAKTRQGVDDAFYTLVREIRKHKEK
Chain of KRAS G12D (P62937 whole entry): as the sequence (P62937 whole entry) above
How it was run: as §1

KRAS G12V = KRAS G12V (Homo sapiens (Human), UniProt P01116+P62937, G12V); experiment: Ras-Raf (BRAF RBD) disruption / FRET / MOA assay, KRAS G12V; assay type: biochemical; conditions: read-out: IC50* KRAS G12V FRET data
Chain of KRAS G12V (P01116-2 other isoform, or with tags, fused parts or gaps G12V): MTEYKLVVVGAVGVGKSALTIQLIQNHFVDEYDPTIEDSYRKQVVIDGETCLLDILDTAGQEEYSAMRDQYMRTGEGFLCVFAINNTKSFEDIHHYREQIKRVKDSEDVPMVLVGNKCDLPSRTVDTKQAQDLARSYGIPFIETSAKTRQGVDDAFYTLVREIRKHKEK
Chain of KRAS G12V (P62937 whole entry): as the sequence (P62937 whole entry) above
How it was run: as §1

KRAS WT = KRAS WT (Homo sapiens (Human), UniProt P01116+P62937); experiment: Ras-Raf (BRAF RBD) disruption / FRET / MOA assay, KRAS WT; assay type: biochemical; conditions: read-out: IC50* KRAS WT FRET data
Chain of KRAS WT (P01116-2 other isoform, or with tags, fused parts or gaps): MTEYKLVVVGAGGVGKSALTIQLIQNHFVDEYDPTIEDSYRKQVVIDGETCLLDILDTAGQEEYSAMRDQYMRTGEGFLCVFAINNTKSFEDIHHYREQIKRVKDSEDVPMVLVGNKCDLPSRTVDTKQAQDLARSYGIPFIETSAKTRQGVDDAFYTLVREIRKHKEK
Chain of KRAS WT (P62937 whole entry): as the sequence (P62937 whole entry) above
How it was run: as §1

KRAS G13D = KRAS G13D (Homo sapiens (Human), UniProt P01116+P62937, G13D); experiment: Ras-Raf (BRAF RBD) disruption / FRET / MOA assay, KRAS G13D; assay type: biochemical; conditions: read-out: IC50* KRAS G13D FRET data
Chain of KRAS G13D (P01116-2 other isoform, or with tags, fused parts or gaps G13D): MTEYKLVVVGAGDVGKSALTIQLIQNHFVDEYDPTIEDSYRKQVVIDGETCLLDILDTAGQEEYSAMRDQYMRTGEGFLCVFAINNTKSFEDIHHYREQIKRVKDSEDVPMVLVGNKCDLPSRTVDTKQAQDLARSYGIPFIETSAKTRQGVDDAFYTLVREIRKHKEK
Chain of KRAS G13D (P62937 whole entry): as the sequence (P62937 whole entry) above
How it was run: as §1

NRAS G12C = NRAS G12C (Homo sapiens (Human), UniProt P01111+P62937, G12C); experiment: Ras-Raf (BRAF RBD) disruption / FRET / MOA assay, NRAS G12C; assay type: biochemical; conditions: read-out: IC50* NRAS G12C FRET data
Chain of NRAS G12C (P01111 whole entry G12C): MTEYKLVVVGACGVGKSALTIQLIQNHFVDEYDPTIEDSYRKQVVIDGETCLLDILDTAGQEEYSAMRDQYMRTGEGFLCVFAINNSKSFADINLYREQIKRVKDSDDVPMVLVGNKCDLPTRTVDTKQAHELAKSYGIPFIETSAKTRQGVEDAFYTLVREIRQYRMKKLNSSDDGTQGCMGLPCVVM
Chain of NRAS G12C (P62937 whole entry): as the sequence (P62937 whole entry) above
How it was run: as §1

| Structure (SMILES) | EC50 [1] | IC50 (NCI-H358 (K-Ras G12C)) | IC50 (K-Ras G12C) | IC50 (K-Ras G13C) | IC50 (KRAS G12S) | IC50 (KRAS G12D) | IC50 (KRAS G12V) | IC50 (KRAS WT) | IC50 (KRAS G13D) | IC50 (NRAS G12C) |
| --- | --- | --- | --- | --- | --- | --- | --- | --- | --- | --- |
| C=CC(=O)N1C[C@H](C(=O)N(C)[C@H](C(=O)N[C@H]2Cc3cccc(c3)-c3ccc4c(c3)c(c(-c3cccnc3[C@H](C)OC)n4CC)CC(C)(C)COC(=O)[C@@H]3CCCN(N3)C2=O)C(C)C)[C@@H](C)C1 (atropisomer, axis not shown) [Example A451] | < 5000 nM | 10 to 100 nM | 100 to 1000 nM | 100 to 1000 nM | 1000 to 10000 nM | 1000 to 10000 nM | 1000 to 10000 nM | 1000 to 10000 nM | 1000 to 10000 nM | 100 to 1000 nM |
| C=CC(=O)N1CC2(C1)OCN([C@H](C(=O)N[C@H]1Cc3cccc(c3)-c3ccc4c(c3)c(c(-c3cccnc3[C@H](C)OC)n4CC)CC(C)(C)COC(=O)[C@@H]3CCCN(N3)C1=O)C(C)C)C2=O (atropisomer, axis not shown) [Example A452] | < 5000 nM | < 10 nM | 10 to 100 nM | 10 to 100 nM | 1000 to 10000 nM | > 10000 nM | 1000 to 10000 nM | 100 to 1000 nM | 1000 to 10000 nM | 10 to 100 nM |
| CO[C@@H](C)c1ncccc1-c1c2c3cc(ccc3n1CC(F)(F)F)-c1nc(cs1)C[C@H](NC(=O)[C@H](C(C)C)N(C)C(=O)[C@H]1CCN(C(=O)C#CC(C)(C)N3CCC3)C1)C(=O)N1CCC[C@H](N1)C(=O)OCC(C)(C)C2 (atropisomer, axis not shown) [Example A454] | < 5000 nM | < 10 nM | 10 to 100 nM | 100 to 1000 nM | 1000 to 10000 nM | 1000 to 10000 nM | 1000 to 10000 nM | 100 to 1000 nM | 1000 to 10000 nM | 10 to 100 nM |
| C=CC(=O)N1CC[C@H](C(=O)N(C)[C@H](C(=O)N[C@H]2Cc3csc(n3)-c3ccc4c(c3)c(c(-c3cccnc3[C@H](C)OC)n4CC(F)(F)F)CC(C)(C)COC(=O)[C@@H]3CCCN(N3)C2=O)C(C)C)C1 (atropisomer, axis not shown) [Example A455] | < 5000 nM | 10 to 100 nM | 100 to 1000 nM | 100 to 1000 nM | 100 to 1000 nM | 1000 to 10000 nM | 1000 to 10000 nM | 100 to 1000 nM | 1000 to 10000 nM | 100 to 1000 nM |
| CCn1c(-c2cccnc2[C@H](C)OC)c2c3cc(ccc31)-c1cc(cc(C(F)F)c1)C[C@H](NC(=O)[C@H](C1CCCC1)N(C)C(=O)[C@H]1CCN(C(=O)C#CC(C)(C)N3CCC3)C1)C(=O)N1CCC[C@H](N1)C(=O)OCC(C)(C)C2 (atropisomer, axis not shown) [Example A456] | < 5000 nM | < 10 nM | 10 to 100 nM | 1000 to 10000 nM | 1000 to 10000 nM | 1000 to 10000 nM | 1000 to 10000 nM | 1000 to 10000 nM | 1000 to 10000 nM | 10 to 100 nM |
| C=CC(=O)N1CCC2(CC1)OCN([C@H](C(=O)N[C@H]1Cc3cccc(c3)-c3ccc4c(c3)c(c(-c3cccnc3[C@H](C)OC)n4CC)CC(C)(C)COC(=O)[C@@H]3CCCN(N3)C1=O)C(C)C)C2=O (atropisomer, axis not shown) [Example A457] | < 5000 nM | 10 to 100 nM | 100 to 1000 nM | 100 to 1000 nM | 1000 to 10000 nM | > 10000 nM | 1000 to 10000 nM | 100 to 1000 nM | 1000 to 10000 nM | 100 to 1000 nM |
| C=CC(=O)N1C[C@@H](C(=O)N(C)[C@H](C(=O)N[C@H]2Cc3cccc(c3)-c3ccc4c(c3)c(c(-c3cccnc3[C@H](C)OC)n4CC)CC(C)(C)COC(=O)[C@@H]3CCCN(N3)C2=O)C(C)C)C(C)(C)C1 (atropisomer, axis not shown) [Example A458] | < 5000 nM | 10 to 100 nM | 10 to 100 nM | 100 to 1000 nM | 1000 to 10000 nM | > 10000 nM | 1000 to 10000 nM | 1000 to 10000 nM | 1000 to 10000 nM | 10 to 100 nM |
| C=CC(=O)N1CC(OC[C@H](C(=O)N[C@H]2Cc3nc(cs3)-c3ccc4c(c3)c(c(-c3cccnc3[C@H](C)OC)n4CC)CC(C)(C)COC(=O)[C@@H]3CCCN(N3)C2=O)C(C)C)C1 (atropisomer, axis not shown) [Example A462] | < 5000 nM | < 10 nM | 100 to 1000 nM | 1000 to 10000 nM | 1000 to 10000 nM | > 10000 nM | 1000 to 10000 nM | 1000 to 10000 nM | > 10000 nM | 100 to 1000 nM |
| C=CC(=O)N1CC(C(=O)N(C)[C@H](C(=O)N[C@H]2Cc3cccc(c3)-c3ccc4c(c3)c(c(-c3cccnc3[C@H](C)OC)n4CC)CC(C)(C)COC(=O)[C@@H]3CCCN(N3)C2=O)C(C)C)C1 (atropisomer, axis not shown) [Example A467] | < 5000 nM | 10 to 100 nM | 1000 to 10000 nM | 1000 to 10000 nM | > 10000 nM | > 10000 nM | > 10000 nM | > 10000 nM | > 10000 nM | 100 to 1000 nM |
| C=CC(=O)N1CC[C@H](C(=O)N(C)[C@H](C(=O)N[C@H]2Cc3cccc(c3)-c3ccc4c(c3)c(c(-c3cccnc3[C@H](C)OC)n4CC)CC(C)(C)COC(=O)[C@@H]3CCCN(N3)C2=O)C2COC2)C1 (atropisomer, axis not shown) [Example A469] | < 5000 nM | 100 to 1000 nM | 100 to 1000 nM | 1000 to 10000 nM | 1000 to 10000 nM | > 10000 nM | 1000 to 10000 nM | 1000 to 10000 nM | 1000 to 10000 nM | 100 to 1000 nM |
| C=CC(=O)N1CC[C@]2(CCN([C@H](C(=O)N[C@H]3Cc4cccc(c4)-c4ccc5c(c4)c(c(-c4cccnc4[C@H](C)OC)n5CC)CC(C)(C)COC(=O)[C@@H]4CCCN(N4)C3=O)C(C)C)C2=O)C1 (atropisomer, axis not shown) [Example A470] | < 5000 nM | 10 to 100 nM | 100 to 1000 nM | 100 to 1000 nM | 100 to 1000 nM | 1000 to 10000 nM | 1000 to 10000 nM | 1000 to 10000 nM | 1000 to 10000 nM | 100 to 1000 nM |
| C=CC(=O)N1CC[C@@]2(CCN([C@H](C(=O)N[C@H]3Cc4cccc(c4)-c4ccc5c(c4)c(c(-c4cccnc4[C@H](C)OC)n5CC)CC(C)(C)COC(=O)[C@@H]4CCCN(N4)C3=O)C(C)C)C2=O)C1 (atropisomer, axis not shown) [Example A471] | < 5000 nM | 10 to 100 nM | 100 to 1000 nM | 100 to 1000 nM | 1000 to 10000 nM | > 10000 nM | > 10000 nM | 1000 to 10000 nM | > 10000 nM | 100 to 1000 nM |
| CCn1c(-c2cccnc2[C@H](C)OC)c2c3cc(ccc31)-c1csc(n1)C[C@H](NC(=O)CCOC1CN(C(=O)C#CC(C)(C)N3CCC3)C1)C(=O)N1CCC[C@H](N1)C(=O)OCC(C)(C)C2 (atropisomer, axis not shown) [Example A477] | < 5000 nM | 10 to 100 nM | < 10 nM | 1000 to 10000 nM | > 10000 nM | > 10000 nM | 1000 to 10000 nM | 1000 to 10000 nM | > 10000 nM | 10 to 100 nM |
| CCn1c(-c2cccnc2[C@H](C)OC)c2c3cc(ccc31)-c1cccc(c1)C[C@H](NC(=O)CCOC1CN(C(=O)C#CC(C)(C)N3CCC3)C1)C(=O)N1CCC[C@H](N1)C(=O)OCC(C)(C)C2 (atropisomer, axis not shown) [Example A478] | < 5000 nM | 10 to 100 nM | 10 to 100 nM | > 10000 nM | > 10000 nM | > 10000 nM | > 10000 nM | > 10000 nM | > 10000 nM | 10 to 100 nM |
